#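 96-well plates; 48 h exposure; 5 concentrations. Endpoints by linear interpolation between flanking doses. Not reached: highest tested concentration assigned. Here, GI50 denotes the concentration required for 50% inhibition of growth. TGI is the concentration that stops growth completely.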
# How the values were obtained:
# Test in all cases: NCI tumour cell line growth inhibition, 48 h
# RXF-631 renal = system: RXF-631 renal
# LXFL 529 NSCLC = system: LXFL 529 NSCLC
# DMS 273 small cell lung = system: DMS 273 small cell lung
# DU-145 prostate = system: DU-145 prostate
# 786-0 renal = system: 786-0 renal
# HS 578T breast = system: HS 578T breast
# PC-3 prostate = system: PC-3 prostate
# P388/ADR leukemia = system: P388/ADR leukemia
SMILES,TGI (DMS 273 small cell lung) [µM],TGI (DU-145 prostate) [µM],TGI (HS 578T breast) [µM],TGI (PC-3 prostate) [µM],other results
COc1ccc(C(=O)Cc2cc(OC)ccc2OC)cc1,> 100,–,–,–,TGI (RXF-631 renal): > 100 µM; TGI (LXFL 529 NSCLC): > 100 µM
CC(C)=CCN(N=O)c1ncnc2nc[nH]c12,–,> 100,> 100,> 100,TGI (786-0 renal): > 100 µM
COc1ccccc1C1C(C#N)=C(N)OC2=C1C(=O)CCC2 (centres undefined),–,> 100,> 100,–,GI50 (DU-145 prostate): > 100 µM; GI50 (HS 578T breast): > 100 µM
CCCCc1ccc2[n+](c1)C(C(=O)OCC)=PC2 (centres undefined),–,> 100,> 100,> 100,TGI (786-0 renal): > 100 µM
O=C1c2ccccc2-c2ccc(NC(=O)C3CCCCC3C(=O)O)cc21 (centres undefined),–,> 100,> 100,> 100,TGI (786-0 renal): > 100 µM
O=CNc1cccc2c3c([nH]c12)CCCCCC3,> 100,–,–,–,TGI (P388/ADR leukemia): > 100 µM
C=C1C(=O)O[C@H]2C1[C@H](OC(=O)/C(C)=C\COC(C)=O)C[C@]1(CO1)[C@@H]1[C@H](O)[C@H]3O[C@@]3(C)[C@@H]12 (some centres undefined),> 63.2,–,–,–,TGI (P388/ADR leukemia): 30 µM
COC(=O)C(C)N1C(=O)c2ccccc2I1OC(C)=O (centres undefined),–,> 100,> 100,> 100,GI50 (DU-145 prostate): > 100 µM; GI50 (HS 578T breast): > 100 µM; GI50 (PC-3 prostate): > 100 µM
CCOC(=O)C1C(c2cc(OC)c(O)c(OC)c2)c2cc3c(cc2OC1(C)O)OCO3 (centres undefined),> 100,–,–,–,TGI (RXF-631 renal): > 100 µM
COc1cc(N=Nc2cccc(S(=O)(=O)O)c2)c(C)cc1N=Nc1ccc(/C=C/c2ccc(N=[N+]([O-])c3ccc(/C=C/c4ccc(N=Nc5cc(C)c(N=Nc6cccc(S(=O)(=O)O)c6)cc5OC)cc4)c(S(=O)(=O)O)c3)cc2S(=O)(=O)O)cc1,> 100,–,–,–,–
Cc1cc(NS(=O)(=O)c2ccc(Nc3c4ccccc4nc4c(C(=O)NCCN(C)C)ccc(Cl)c34)cc2)no1,–,–,–,–,TGI (RXF-631 renal): 20.9 µM; TGI (LXFL 529 NSCLC): 19.2 µM
